Measured values taken from patent US20240208972A1, “LRRK2 INHIBITORS AND USES THEREOF” (NEURON23, INC., priority 2022, published 2024).

What was measured:
[1] = system: Caco-2 cells; experiment: Caco-2 bidirectional permeability; assay type: in vitro ADME; conditions: for Caco-2 A2B (10^−6 cm/s): A to B; for Caco-2 A2B (10^−6 cm/s) / Caco-2 B2A (10^−6 cm/s): HBSS pH 7.4, 2 hours; for Caco-2 B2A (10^−6 cm/s): B to A; for Caco-2 ER: Efflux Ratio=Papp (BA)/Papp (AB)
Summary of the method: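 Caco-2 monolayers grown 21–28 days on PET inserts were run in duplicate in HBSS with 10 mM HEPES, pH 7.4. Compound was tested in both directions at […] for 2 h at 37 °C and quantified by LC-MS/MS. Papp, % recovery and efflux ratio (B-A/A-B) were calculated, with lucifer yellow checking monolayer integrity.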

[2] = Human hepatocyte stability, in vitro h-Hept CLpredict; assay type: in vitro ADME; conditions: cryopreserved hepatocytes, predicted hepatic clearance, cells without asterisk, read-out: hHep Cl
Summary of the method: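 Cryopreserved human hepatocytes at 0.5×10^6 viable cells/mL in William's E medium, compound added from 100 μM solution, sampled 0–120 min in duplicate with LC/MS/MS quantitation. t1/2 from parent disappearance converted to CLint, then scaled to predicted hepatic clearance (well-stirred model, fub assumed 1) and extraction ratio.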

Compound | Caco-2 A2B (10^−6 cm/s) [1] | Caco-2 B2A (10^−6 cm/s) [1] | Caco-2 ER [1] | CLhep predicted at 1 µM [2]
Cc1n[nH]c2c1N=C(c1c(F)cccc1F)Nc1cnc(N3CCO[C@@H](C(F)(F)F)C3)cc1-2 [Example 55, (2R)-4-[8-(2,6-difluorophenyl)-5-methyl-3,4,7,9,12-pentazatricyclo[8.4.0.02,6]tetradeca-1(10),2(6),4,7,11,13-hexaen-13-yl]-2-(trifluoromethyl)morpholine] | H (H (High permeability)”: A2B (B2A)>5) | H (H (High permeability)”: A2B (B2A)>5) | N (N (Non-substrate)”: ER<2.5) | 6.3 to 14.7 mL/min/kg
Cn1nccc1-c1cc2c(cn1)NC(c1c(F)cccc1F)=Nc1c(Cl)n[nH]c1-2 [Example 59, 3-chloro-5-(2,6-difluorophenyl)-9-(1-methyl-1H-pyrazol-5-yl)-1,6-dihydropyrazolo[4,3-d]pyrido[4,3-f][1,3]diazepine] | H (H (High permeability)”: A2B (B2A)>5) | H (H (High permeability)”: A2B (B2A)>5) | N (N (Non-substrate)”: ER<2.5) | 6.3 to 14.7 mL/min/kg
